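All cell lines were grown in 96-well plates and treated with compound for 48 hours. TGI marks complete inhibition of growth.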
Legend:
Assay in all cases: inhibition of tumour cell growth, NCI panel, 48 h
[1] = tested on: OVCAR-4 ovarian
[2] = tested on: SF-268 CNS
[3] = tested on: LOX IMVI melanoma
[4] = tested on: SK-MEL-2 melanoma
[5] = tested on: MDA-N
[6] = tested on: SF-539 CNS
[7] = tested on: SNB-19 CNS
[8] = tested on: UO-31 renal
[9] = tested on: SW-620 colon
[10] = tested on: SK-MEL-5 melanoma
[11] = tested on: TK-10 renal
[12] = tested on: HOP-62 NSCLC
[13] = tested on: COLO 205 colon
[14] = tested on: SNB-75 CNS
[15] = tested on: SK-MEL-28 melanoma
[16] = tested on: HCC-2998 colon
[17] = tested on: DU-145 prostate
[18] = tested on: HT29 colon
[19] = tested on: HS 578T breast
[20] = tested on: U251 CNS
[21] = tested on: OVCAR-3 ovarian
[22] = tested on: A549 NSCLC
[23] = tested on: SF-295 CNS
[24] = tested on: RPMI-8226 leukemia
[25] = tested on: SN12C renal
[26] = tested on: OVCAR-5 ovarian
[27] = tested on: NCI-H23 lung
[28] = tested on: KM12 colon
[29] = tested on: SR leukemia
[30] = tested on: ACHN renal
[31] = tested on: NCI-H226 lung
[32] = tested on: MALME-3M melanoma
[33] = tested on: OVCAR-8 ovarian
[34] = tested on: HCT-116 colon
[35] = tested on: IGROV1 ovarian
[36] = tested on: MCF7 breast
[37] = tested on: UACC-62 melanoma
[38] = tested on: NCI-H460 lung
[39] = tested on: CAKI-1 renal
[40] = tested on: MDA-MB-435
[41] = tested on: MOLT-4 leukemia
[42] = tested on: T-47D breast
[43] = tested on: 786-0 renal
[44] = tested on: HCT-15 colon
[45] = tested on: SK-OV-3 ovarian
[46] = tested on: K-562 leukemia
[47] = tested on: BT-549 breast
[48] = tested on: EKVX NSCLC
[49] = tested on: PC-3 prostate
[50] = tested on: NCI-H522 lung
[51] = tested on: UACC-257 melanoma
[52] = tested on: MDA-MB-231 breast
[53] = tested on: M14 melanoma
[54] = tested on: HL-60(TB) leukemia
[55] = tested on: CCRF-CEM leukemia
[56] = tested on: A498 renal
[57] = tested on: RXF 393 renal
[58] = tested on: HOP-92 NSCLC
[59] = tested on: NCI/ADR-RES ovarian

## CN(C)CCNC(=O)c1cnn(C)c1[N+](=O)[O-]
[1]
  TGI: > 100 µM
[2]
  TGI: > 100 µM
[3]
  TGI: > 100 µM
[4]
  TGI: > 100 µM
[5]
  TGI: > 100 µM
[6]
  TGI: > 100 µM
[7]
  TGI: > 100 µM
[8]
  TGI: > 100 µM
[9]
  TGI: > 100 µM
[10]
  TGI: > 100 µM
[11]
  TGI: > 100 µM
[12]
  TGI: > 100 µM
[13]
  TGI: 47.8 µM
[14]
  TGI: > 100 µM
[15]
  TGI: > 100 µM
[16]
  TGI: > 100 µM
[17]
  TGI: > 100 µM
[18]
  TGI: > 100 µM
[19]
  TGI: > 100 µM
[20]
  TGI: > 100 µM
[21]
  TGI: 70.6 µM
[22]
  TGI: > 100 µM
[23]
  TGI: > 100 µM
[24]
  TGI: > 100 µM
[25]
  TGI: > 100 µM
[26]
  TGI: > 100 µM
[27]
  TGI: > 100 µM
[28]
  TGI: > 100 µM
[29]
  TGI: > 100 µM
[30]
  TGI: > 100 µM
[31]
  TGI: > 100 µM
[32]
  TGI: 36.1 µM
[33]
  TGI: > 100 µM
[34]
  TGI: > 100 µM
[35]
  TGI: > 100 µM
[36]
  TGI: > 100 µM
[37]
  TGI: > 100 µM
[38]
  TGI: > 100 µM
[39]
  TGI: > 100 µM
[40]
  TGI: > 100 µM
[41]
  TGI: > 100 µM
[42]
  TGI: > 100 µM
[43]
  TGI: > 100 µM
[44]
  TGI: > 100 µM
[45]
  TGI: > 100 µM
[46]
  TGI: > 100 µM
[47]
  TGI: > 100 µM
[48]
  TGI: > 100 µM
[49]
  TGI: > 100 µM
[50]
  TGI: > 100 µM
[51]
  TGI: > 100 µM
[52]
  TGI: > 100 µM
[53]
  TGI: > 100 µM
[54]
  TGI: > 100 µM
[55]
  TGI: > 100 µM
[56]
  TGI: > 100 µM
[57]
  TGI: > 100 µM

## O=C1OC(c2ccccc2)=N/C1=C\c1ccc(F)cc1
[1]
  TGI: > 100 µM
[2]
  TGI: > 100 µM
[58]
  TGI: > 100 µM
[3]
  TGI: > 100 µM
[4]
  TGI: > 100 µM
[5]
  TGI: > 100 µM
[7]
  TGI: > 100 µM
[8]
  TGI: > 100 µM
[9]
  TGI: > 100 µM
[10]
  TGI: > 100 µM
[11]
  TGI: > 100 µM
[12]
  TGI: > 100 µM
[13]
  TGI: > 100 µM
[14]
  TGI: > 100 µM
[15]
  TGI: > 100 µM
[16]
  TGI: > 100 µM
[59]
  TGI: > 100 µM
[17]
  TGI: > 100 µM
[18]
  TGI: > 100 µM
[19]
  TGI: > 100 µM
[20]
  TGI: > 100 µM
[21]
  TGI: > 100 µM
[22]
  TGI: > 100 µM
[24]
  TGI: > 100 µM
[25]
  TGI: > 100 µM
[26]
  TGI: > 100 µM
[27]
  TGI: > 100 µM
[28]
  TGI: > 100 µM
[29]
  TGI: > 100 µM
[30]
  TGI: > 100 µM
[31]
  TGI: > 100 µM
[33]
  TGI: > 100 µM
[34]
  TGI: > 100 µM
[35]
  TGI: > 100 µM
[37]
  TGI: > 100 µM
[38]
  TGI: > 100 µM
[39]
  TGI: > 100 µM
[40]
  TGI: > 100 µM
[41]
  TGI: > 100 µM
[42]
  TGI: > 100 µM
[43]
  TGI: > 100 µM
[44]
  TGI: > 100 µM
[45]
  TGI: > 100 µM
[46]
  TGI: > 100 µM
[47]
  TGI: > 100 µM
[48]
  TGI: > 100 µM
[49]
  TGI: > 100 µM
[50]
  TGI: > 100 µM
[51]
  TGI: > 100 µM
[52]
  TGI: > 100 µM
[53]
  TGI: > 100 µM
[54]
  TGI: > 100 µM
[55]
  TGI: > 100 µM
[56]
  TGI: > 100 µM
[57]
  TGI: > 100 µM

## O=C1OC(=O)C2=C1C(c1cccs1)C=C(c1cccnc1)N2c1ccncc1 (stereo not drawn)
[1]
  TGI: 36 µM
[2]
  TGI: 48.2 µM
[58]
  TGI: 27.1 µM
[3]
  TGI: 27 µM
[4]
  TGI: 32.5 µM
[5]
  TGI: 33.9 µM
[7]
  TGI: 38.9 µM
[8]
  TGI: 30.3 µM
[9]
  TGI: 58.1 µM
[10]
  TGI: 40.2 µM
[11]
  TGI: 31.6 µM
[12]
  TGI: 41.7 µM
[13]
  TGI: 31.8 µM
[14]
  TGI: 35.8 µM
[15]
  TGI: 75.2 µM
[16]
  TGI: 27.1 µM
[59]
  TGI: 82.3 µM
[17]
  TGI: 30.2 µM
[18]
  TGI: 30.4 µM
[19]
  TGI: 71.4 µM
[20]
  TGI: 35.4 µM
[21]
  TGI: 29.3 µM
[22]
  TGI: 40.8 µM
[23]
  TGI: 35.3 µM
[24]
  TGI: 60.2 µM
[25]
  TGI: 32.9 µM
[26]
  TGI: 28.5 µM
[27]
  TGI: 34.7 µM
[28]
  TGI: 26.1 µM
[29]
  TGI: 8.73 µM
[30]
  TGI: 30.1 µM
[31]
  TGI: 56.8 µM
[33]
  TGI: 48.7 µM
[34]
  TGI: 27.3 µM
[35]
  TGI: 29.3 µM
[37]
  TGI: 37.3 µM
[38]
  TGI: 32.1 µM
[39]
  TGI: 29.7 µM
[40]
  TGI: 49.9 µM
[41]
  TGI: 73.8 µM
[42]
  TGI: 37 µM
[43]
  TGI: 32.9 µM
[44]
  TGI: 30.1 µM
[45]
  TGI: 68.5 µM
[46]
  TGI: 84.6 µM
[47]
  TGI: 36.1 µM
[48]
  TGI: 31.4 µM
[49]
  TGI: 29.5 µM
[50]
  TGI: 29.4 µM
[51]
  TGI: 24.7 µM
[52]
  TGI: 39.6 µM
[53]
  TGI: 27 µM
[54]
  TGI: 64.4 µM
[55]
  TGI: 50 µM
[56]
  TGI: 51.5 µM
[57]
  TGI: 34.5 µM

— PubChem BioAssay (NCI)
